From the CheMixHub viscosity set
“And” between values parts separate entries of the source, which are not always exact repeats. Identical values can stand only once.

Tests used:
[1] = xn = mol fraction of the nth substance listed; details: 101 kPa

C#CC(C)(C)O
101.32 kPa
Details | viscosity [mPa·s]
308.15 K | 2.09
313.15 K | 1.775
318.15 K | 1.551
323.15 K | 1.347

C1CCNCC1
101 kPa
Details | viscosity [mPa·s]
298.15 K | 1.31
303.15 K | 1.21
323.15 K | 0.757

C1CC[C@H]2CCCC[C@H]2C1
viscosity [mPa·s]
Details | 293.15 K | 303.15 K | 313.15 K | 323.15 K
100 kPa | – | 2.704 | 2.214 | 1.861
101 kPa | 3.337 | 2.444 | – | –
101.3 kPa | 3.361 | 2.641 | – | –

CC(=O)OC(C)C
101 kPa
Details | viscosity
298.15 K | 0.49 mPa·s
308.15 K | 0.4342 mPa·s and 0.4323 mPa·s

CC(=O)[O-].CC[NH+](CC)CC
101 kPa
Details | viscosity
303.15 K | 19.6 mPa·s and 19.64 mPa·s
308.15 K | 16.13 mPa·s and 16.13 mPa·s
313.15 K | 14.81 mPa·s

CC(CC(C)(C)C)CC(C)(C)CC(C)(C)C (stereo not given)
viscosity
Details | 293.15 K | 298.15 K | 303.15 K | 313.15 K | 323.15 K
100 kPa | 3.64 mPa·s and 3.64 mPa·s and 3.782 mPa·s (2×) | – | 2.984 mPa·s | 2.43 mPa·s and 2.43 mPa·s and 2.411 mPa·s (2×) | 2.01 mPa·s and 2.01 mPa·s and 2.018 mPa·s (2×)
101.33 kPa | – | 3.343 mPa·s | – | – | –

CC(O)=S
Details | viscosity
298.1 K, 101 kPa | 0.687 mPa·s and 0.687 mPa·s

CCCC(=O)O
viscosity
Details | 293.15 K | 303.15 K | 313.15 K | 323.15 K
101 kPa | 1.778 mPa·s and 1.54 mPa·s and 1.78 mPa·s | 1.296 mPa·s and 1.331 mPa·s and 1.33 mPa·s | 1.12 mPa·s | 0.9885 mPa·s
101.33 kPa | 1.623 mPa·s | – | 1.184 mPa·s | –

CCCC(C)O (stereo not given)
Details | viscosity
293.15 K, 101.33 kPa | 3.376 mPa·s
298.15 K, 100 kPa | 3.426 mPa·s
298.15 K, 101 kPa | 3.38 mPa·s and 3.2 mPa·s
298.15 K, 101.3 kPa | 3.45 mPa·s
303 K, 101.33 kPa | 2.677 mPa·s
303.15 K, 101 kPa | 2.739 mPa·s
303.15 K, 101.33 kPa | 2.763 mPa·s and 2.888 mPa·s and 2.887 mPa·s
308.15 K, 101 kPa | 2.312 mPa·s
308.15 K, 101.3 kPa | 2.32 mPa·s
313 K, 101.33 kPa | 2.014 mPa·s
313.15 K, 101 kPa | 1.943 mPa·s
313.15 K, 101.3 kPa | 1.92 mPa·s
313.15 K, 101.33 kPa | 2.017 mPa·s
318.15 K, 101 kPa | 1.674 mPa·s
323.15 K, 101 kPa | 1.479 mPa·s
323.15 K, 101.33 kPa | 1.521 mPa·s

CCCCBr
101 kPa
Details | viscosity
295.95 K | 0.6116 mPa·s
298.15 K | 0.606 mPa·s
303.45 K | 0.5621 mPa·s
308.15 K | 0.552 mPa·s and 0.5235 mPa·s
313.25 K | 0.5057 mPa·s
318.15 K | 0.502 mPa·s
323.15 K | 0.476 mPa·s

CCCCCCCBr
101 kPa
Details | viscosity [mPa·s]
293.15 K | 1.205
303.15 K | 1.05
313.15 K | 0.925
323.15 K | 0.82

CCCCCCCC[n+]1ccc2ccccc2c1.O=S(=O)([N-]S(=O)(=O)C(F)(F)F)C(F)(F)F
101 kPa
Details | viscosity
298.15 K | 369.3 mPa·s and 369.3 mPa·s
308.15 K | 191 mPa·s and 191 mPa·s
318.15 K | 108.7 mPa·s and 108.7 mPa·s

CCCCCCn1cc[n+](C)c1C.O=S(=O)([N-]S(=O)(=O)C(F)(F)F)C(F)(F)F
100 kPa
Details | viscosity [mPa·s]
293.15 K | 172
298.15 K | 129
303.15 K | 99
308.15 K | 78

CCCCNCCCC
viscosity
Details | 293.15 K | 298.15 K | 303.15 K | 308.15 K | 313.15 K | 318.15 K | 323.15 K
100 kPa | – | 0.81 mPa·s | 0.75 mPa·s | 0.71 mPa·s | – | – | –
101 kPa | – | – | 0.764 mPa·s and 0.7734 mPa·s | 0.7184 mPa·s and 0.6757 mPa·s | 0.6692 mPa·s | 0.6249 mPa·s | 0.5859 mPa·s
101.33 kPa | 0.85 mPa·s | 0.81 mPa·s | 0.73 mPa·s | 0.698 mPa·s | 0.64 mPa·s | 0.611 mPa·s | 0.56 mPa·s

CCCC[N+](C)(CCCC)CCCC.N#C[N-]C#N
101 kPa
Details | viscosity [mPa·s]
293.15 K | 497.7
303.15 K | 238.9
313.15 K | 127.3
323.15 K | 74.87

CCC[N+]1(C)CCCC1.O=S(=O)([N-]S(=O)(=O)C(F)(F)F)C(F)(F)F
viscosity [mPa·s]
Details | 293.15 K | 298.15 K | 303.15 K | 308.15 K | 313.15 K | 318.15 K | 323.15 K
101 kPa | – | – | – | – | 34.4 | – | –
101.3 kPa | 76.4 | 61.2 | 49.8 | 41.1 | 34.4 | 29.2 | 25

CCN(C=O)CC
viscosity [mPa·s]
Details | 298.15 K | 298.16 K | 308.15 K | 323.15 K
101 kPa | 1.25 | 1.139 | 1.03 | 0.86
101.33 kPa | 1.254 | – | – | 0.851

CCOC(=O)C(=O)OCC
101 kPa
Details | viscosity [mPa·s]
313.15 K | 1.361
323.15 K | 1.154

CC[N+](CC)(CC)CC.[OH-]
viscosity [mPa·s]
Details | 298.15 K | 303.15 K | 308.15 K | 313.15 K
100 kPa | 4.94 | 4.72 | 4.43 | 4.27
101 kPa | 4.94 | 4.72 | 4.43 | 4.27

COCCO
viscosity
Details | 293.15 K | 298.15 K | 303.15 K | 308.15 K | 313.15 K | 318.15 K | 323.15 K
100 kPa | – | 1.649 mPa·s and 1.563 mPa·s | 1.457 mPa·s | 1.292 mPa·s | 1.15 mPa·s and 1.188 mPa·s | – | –
101 kPa | 1.78 mPa·s | – | – | – | – | – | 0.931 mPa·s and 0.9856 mPa·s and 0.965 mPa·s
101.3 kPa | – | 1.522 mPa·s and 1.695 mPa·s | 1.381 mPa·s and 1.525 mPa·s and 1.376 mPa·s | 1.242 mPa·s and 1.368 mPa·s | 1.151 mPa·s and 1.155 mPa·s | – | 0.9746 mPa·s
101.33 kPa | – | 1.552 mPa·s | 1.476 mPa·s | – | 1.2 mPa·s and 1.189 mPa·s | 1.098 mPa·s and 1.04 mPa·s and 1.042 mPa·s | –

CC(=O)OC(C)C + c1ccccc1
[1], 308.15 K
Details | viscosity [mPa·s]
x2 = 0.0634 | 0.4362
x2 = 0.2053 | 0.4409
x2 = 0.3085 | 0.4455
x2 = 0.4037 | 0.4502
x2 = 0.5044 | 0.4564
x2 = 0.6051 | 0.4587
x2 = 0.6985 | 0.4735
x2 = 0.8005 | 0.4854
x2 = 0.9366 | 0.502

CCCCNCCCC + c1ccccc1
viscosity [mPa·s], [1]
Details | x1 = 0.01077 | x1 = 0.02009 | x1 = 0.02993 | x1 = 0.03893 | x1 = 0.04865 | x1 = 0.05929 | x1 = 0.06883 | x1 = 0.07963 | x1 = 0.08917
303.15 K | 0.5674 | 0.5699 | 0.5746 | 0.5771 | 0.5809 | 0.584 | 0.5864 | 0.5907 | 0.5931
313.15 K | 0.4959 | 0.4998 | 0.503 | 0.5067 | 0.511 | 0.5134 | 0.515 | 0.5177 | 0.5198

CCOC(=O)C(=O)OCC + c1ccccc1
[1], 303.15 K
Details | viscosity [mPa·s]
x1 = 0.0682 | 0.5918
x1 = 0.1415 | 0.6316
x1 = 0.2203 | 0.6727
x1 = 0.3054 | 0.7255
x1 = 0.3972 | 0.7942
x1 = 0.4972 | 0.8854
x1 = 0.6066 | 1.009
x1 = 0.7258 | 1.164
x1 = 0.8557 | 1.374

CCCC(=O)O + c1ccncc1
[1], 293.15 K
Details | viscosity [mPa·s]
x2 = 0.152 | 3.474
x2 = 0.256 | 3.89
x2 = 0.429 | 3.36
x2 = 0.528 | 2.674
x2 = 0.642 | 1.996
x2 = 0.818 | 1.29
